{"source": "patent US8148092B2", "about": "“System and method for performing G protein coupled receptor (GPCR) cell assays using waveguide-grating sensors” (Corning Incorporated, priority 2005, dated 2012)", "key": {"[1]": {"test_system": "CHO cells", "test": "optical LID (waveguide grating biosensor) mass redistribution response of adherent CHO cells after compound addition", "type": "cell-based, Chinese Hamster", "conditions": "for ligand-induced mass redistribution signal (total change in response): CHO cells, compound 10 μM, FIGS. 13, 15, 18", "source_text": "Referring to FIG. 3, there is shown a flowchart illustrating the basic steps of a method 300 for monitoring in real time the mass redistribution due to an agonist-induced GPCR activation within living cells 108 using an optical LID biosensor 104 in accordance with the present invention. The method 300 includes the following steps: (a) provide an optical LID biosensor 104 (step 302); (b) place a certain number of living cells 108 in a medium which covers the optical LID biosensor 104 such that the living cells 108 attach onto the surface 110 of the optical LID biosensor 104 (step 304); (c) optionally apply a buffer solution at least once into the cell medium (step 306); (d) apply a solution containing a compound (agonist) into the cell medium (step 308); and (e) interrogate the optical LID biosensor 104 and monitor the time dependent optical response 201 of the living cells 108 cultured on the optical LID biosensor 104 (step 310).\nIt is known that CHO cells 108 endogenously express beta adrenergic receptors, alpha2-adrenergic receptors, P2Y receptors, as well as beta-arrestin and GRKs. It is also known that muscarinic receptors are endogenously expressed at very low level in the CHO cells 108. In this experiment, approximately ˜5×10^4 CHO cells 108 were placed within each well of a microplate that contained an array of optical LID biosensors 104. The CHO cells 108 were then cultured in 150 μl serum medium for 24 hours to ensure that the CHO cells 108 became adherent to the substrate surface 110.\nSince muscarinic receptors are endogenously expressed at very low level in CHO cells 108; oxotremorine M, agonist for muscarinic receptors, served as a control. Each of these agonists was directly applied to a different one of the wells which contained the serum medium. The optical responses were then collected by the optical LID system 100."}, "[2]": {"test_system": "CHO cells with stably overexpressed rat muscarinic receptor subtype 1 (M1 CHO)", "test": "optical LID mass redistribution response of CHO cells with stably overexpressed rat muscarinic receptor subtype 1 after compound addition", "type": "cell-based, Chinese Hamster", "conditions": "compound 10 μM, compared with CHO cells, FIGS. 14, 15, 18", "experimental": "FIG. 14 a time-dependent LID response of engineered Chinese Hamster Ovary (CHO) cells with over-expressed rat muscarnic receptor subtype 1 (thus this cell line is termed as M1 CHO) before and after compound addition. The compound concentration used is 10 μM for all compounds."}}}
{"smiles": "CCNC(=O)[C@H]1O[C@@H](n2cnc3c(N)ncnc32)[C@H](O)[C@@H]1O", "note": "[NECA]", "values": [{"measurement": "ligand-induced mass redistribution signal (total change in response)", "setting": "[1]", "value": "results in mass redistribution signals"}, {"measurement": "ligand-induced mass redistribution signal (total change in response)", "setting": "[2]", "value": "results in mass redistribution signals"}]}
{"smiles": "Clc1cccc(Cl)c1N=C1NCCN1", "note": "[clonidine]", "values": [{"measurement": "ligand-induced mass redistribution signal (total change in response)", "setting": "[1]", "value": "induced mass redistribution signals"}]}
{"smiles": "C[N+](C)(C)CC#CCN1CCCC1=O", "note": "[oxotremorine M]", "values": [{"measurement": "agonist-induced time-dependent optical LID response", "setting": "[1]; CHO cells in serum medium, ATP 100 μM, epinephrine 100 μM, clonidine 10 μM, oxotremorine M 10 μM, FIG. 10", "value": "almost no cell response"}, {"measurement": "ligand-induced mass redistribution signal (total change in response)", "setting": "[2]", "value": "significantly larger responses in M1-CHO cells"}]}
{"smiles": "Cc1scc2c1N(C(=O)CN1CCN(C)CC1)c1ccccc1NC2=O", "note": "[telenzepine]", "values": [{"measurement": "ligand-induced mass redistribution signal (total change in response)", "setting": "[2]", "value": "not its antagonist (telenzepine) results in significantly larger responses"}]}
